A word on the inhibition: it is the change of the read-out against control, counted positive when it falls.

The first test deals with T1, LmjIPCS (inositol phosphorylceramide synthase from L. major) (Leishmania major, UniProt E9AFX2).
T1 sequence (E9AFX2 1-338): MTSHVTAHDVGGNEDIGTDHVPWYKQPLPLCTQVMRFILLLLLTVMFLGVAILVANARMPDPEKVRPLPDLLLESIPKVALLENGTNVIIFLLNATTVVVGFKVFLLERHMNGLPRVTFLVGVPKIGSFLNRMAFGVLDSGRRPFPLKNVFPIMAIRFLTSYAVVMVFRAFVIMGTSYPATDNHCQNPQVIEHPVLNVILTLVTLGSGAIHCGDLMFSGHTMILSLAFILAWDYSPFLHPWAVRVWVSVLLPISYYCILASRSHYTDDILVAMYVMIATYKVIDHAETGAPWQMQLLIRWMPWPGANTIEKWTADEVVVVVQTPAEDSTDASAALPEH
In words: biochemical.
Conditions: not given
In kind it is biochemical. More on the design: inhibition: dose or concentration left out as unconfirmed.
As for `COc1cc2c(cc1O)CCNC2C` (stereo not shown) [SALSOLINE], the “20mM inhibition LmjIPCS” value was 12%.
The same measure, in the same setting: the same measure for `CO[C@H]1C[C@H](O[C@@H]2/C(C)=C/C[C@@H]3C[C@@H](C[C@]4(CC[C@H](C)[C@@H](C5CCCCC5)O4)O3)OC(=O)[C@@H]3C=C(C)/C(=N/O)[C@H]4OC/C(=C\C=C\[C@@H]2C)[C@]43O)O[C@@H](C)[C@@H]1O` [SELAMECTIN]: 45%; for `O=C(O)c1cc(O)c2c(c1)[C@H]([C@H]1c3cc(C(=O)O)cc(O)c3C(=O)c3c(O[C@@H]4O[C@H](CO)[C@@H](O)[C@H](O)[C@H]4O)cccc31)c1cccc(O[C@@H]3O[C@H](CO)[C@@H](O)[C@H](O)[C@H]3O)c1C2=O` [SENNOSIDE A]: 62%; for `C[C@H](CCC(=O)[O-])[C@H]1CC[C@H]2[C@@H]3C(=O)C[C@@H]4CC(=O)CC[C@]4(C)[C@H]3CC(=O)[C@]12C.[Na+]` [SODIUM DEHYDROCHOLATE]: -6.4%.
The same measure, in the same setting: the same measure for `CCN1CCCC1CNC(=O)c1cc(S(N)(=O)=O)ccc1OC` (stereo not shown) [SULPIRIDE]: 43%.

Staying with this test, now noted: NINDS set screen, single concentration printed as 20mM.
Regarding `CC[C@H]1OC(=O)[C@H](C)[C@@H](O[C@H]2C[C@@](C)(OC)[C@@H](O)[C@H](C)O2)[C@H](C)[C@@H](O[C@@H]2O[C@H](C)C[C@H](N(C)C)[C@H]2O)[C@](C)(O)C[C@@H](C)/C(=N\OCOCCOC)[C@H](C)[C@@H](O)[C@]1(C)O` [ROXITHROMYCIN], the “20mM inhibition LmjIPCS” value is 59%.
With `Nc1ccc(S(=O)(=O)Nc2nccs2)cc1` [SULFATHIAZOLE], the “20mM inhibition LmjIPCS” value is on record as 35%.

Staying with this test, now noted: NINDS set screen; read-out: inhibition LmjIPCS.
As to `N[C@@H](CCC(=O)N[C@@H](CSC(CC(=O)O)C(=O)O)C(=O)NCC(=O)O)C(=O)O` (stereo partly drawn) [S-(1,2-DICARBOXYETHYL)GLUTATHIONE], the inhibition turned out to be 14%.
Take `OCc1ccccc1O` [SALICYL ALCOHOL]: the inhibition was 23%.
With `NC(=O)c1ccccc1O` [SALICYLAMIDE], the inhibition is 0.588%.
On to `O=C(O)c1cn(-c2ccc(F)cc2)c2cc(N3CCNCC3)c(F)cc2c1=O` [SARAFLOXACIN], for which the inhibition was found to be 18%.
Still for that read-out and setting: the same measure for `O=C(CCCN1CCC2(CC1)C(=O)NCN2c1ccccc1)c1ccc(F)cc1` [SPIPERONE]: -6%; for `CC(=O)S[C@@H]1CC2=CC(=O)CC[C@]2(C)[C@H]2CC[C@@]3(C)[C@@H](CC[C@@]34CCC(=O)O4)[C@H]12` [SPIRONOLACTONE]: -1.06%.
On the same count and under the same terms, the same measure for `Nc1ccc(S(=O)(=O)NC(=O)c2ccccc2)cc1` [SULFABENZAMIDE]: -6%; for `Nc1ccc(S(=O)(=O)Nc2ccc(Cl)nn2)cc1` [SULFACHLORPYRIDAZINE]: 23%; for `Nc1ccc(S(=O)(=O)Nc2ccnn2-c2ccccc2)cc1` [SULFAPHENAZOLE]: 0.104%.
Still for that read-out and setting: the same measure for `COC(=O)C(C)c1ccc(C(=O)c2cccs2)cc1` (stereo not shown) [SUPROFEN METHYL ESTER]: -10%.

Still in this test, the particulars now being: read-out: 20mM inhibition LmjIPCS.
Take `CC[C@@]1(O)C[C@H](O)c2c(cc3c(c2O)C(=O)c2c(O)ccc(O)c2C3=O)[C@H]1C(=O)OC` [RUTILANTINONE]: the inhibition at 20000 µM was found to be 27%.
On the same count and under the same terms, the same measure for `O=C1NS(=O)(=O)c2ccccc21` [SACCHARIN]: 3.67%; for `C=CCc1ccc2c(c1)OCO2` [SAFROLE]: 1.28%.
On to `OCc1ccccc1O[C@@H]1O[C@H](CO)[C@@H](O)[C@H](O)[C@H]1O` [SALICIN], for which the inhibition at 20000 µM came to 14%.
The same measure, in the same setting: the same measure for `CC[C@@H](C(=O)[C@@H](C)[C@@H](O)[C@H](C)[C@@H]1O[C@@H]([C@@H](CC)C(=O)O)CC[C@@H]1C)[C@H]1O[C@]2(C=C[C@@H](O)[C@]3(CC[C@@](C)([C@H]4CC[C@](O)(CC)[C@H](C)O4)O3)O2)[C@H](C)C[C@@H]1C` [SALINOMYCIN]: 29%; for `CN1[C@@H]2C[C@@H](OC(=O)[C@H](CO)c3ccccc3)C[C@H]1[C@@H]1O[C@@H]12` [SCOPOLAMINE]: -2.65%.
Same read-out and setting: the same measure for `Cc1ncc([N+](=O)[O-])n1CC(C)O` (stereo not shown) [SECNIDAZOLE]: 12%.
Regarding `O=C1C=C2C=C[C@@H]3C[C@@]2(O1)[C@H]1CCCCN31` [SECURININE], the inhibition at 20000 µM worked out at 11%.
On the same count and under the same terms, the same measure for `CC1CCC(NC(=O)N(CCCl)N=O)CC1` (stereo not shown) [SEMUSTINE]: 15%; for `COc1cc(C2Oc3cc([C@H]4Oc5cc(O)cc(O)c5C(=O)[C@@H]4O)ccc3OC2CO)ccc1O` (stereo partly shown) [SILIBININ]: 2.14%.
Still for that read-out and setting: the same measure for `COC1=C[C@@H]2[C@@H]3Cc4ccc(OC)c(O)c4[C@]2(CCN3C)CC1=O` [SINOMENINE]: 8%; for `CN[C@@H]1[C@@H](O)[C@@H](O[C@@H]2[C@@H](O)[C@H](O[C@H]3OC(CN)=CC[C@H]3N)[C@@H](N)C[C@H]2N)OC[C@]1(C)O` [SISOMICIN]: 19%.
Still for that read-out and setting: the same measure for `CC(=O)N[C@@H](CC(=O)N[C@@H](CCC(=O)O)C(=O)O)C(=O)O` [SPAGLUMIC ACID]: 1.82%; for `CN[C@@H]1[C@H](O)[C@H](NC)[C@H]2O[C@@]3(O)C(=O)C[C@@H](C)O[C@H]3O[C@@H]2[C@H]1O` [SPECTINOMYCIN]: 19%.
For the compound `NCCCCNCCCN` [SPERMIDINE], the inhibition at 20000 µM was 12%.
On the same count and under the same terms, the value for `O=C1C[C@@H]2OCC=C3CN4CC[C@]56c7ccccc7N1[C@H]5[C@H]2[C@H]3C[C@H]46` [STRYCHNINE] was 3%; that for `CC(=O)NS(=O)(=O)c1ccc(N)cc1` [SULFACETAMIDE] was -1.63%; that for `Nc1ccc(S(=O)(=O)Nc2ncccn2)cc1` [SULFADIAZINE] was 18%.
Take `[H]/N=C(/N)NS(=O)(=O)c1ccc(N)cc1` [SULFAGUANIDINE]: the inhibition at 20000 µM was -1.62%.
On to `Cc1ccnc(NS(=O)(=O)c2ccc(N)cc2)n1` [SULFAMERAZINE], for which the inhibition at 20000 µM worked out at 3.51%.
On the same count and under the same terms, the same measure for `Nc1ccc(S(N)(=O)=O)cc1` [SULFANILAMIDE]: -1.19%.
With `Nc1ccc(S(=O)(=O)Nc2ccccn2)cc1` [SULFAPYRIDINE], the inhibition at 20000 µM is -1.38%.
In the case of `CC(C(=O)O)c1ccc(C(=O)c2cccs2)cc1` (stereo not shown) [SUPROFEN], the inhibition at 20000 µM was found to be 5%.

Staying with this test, now noted: read-out: inhibition LmjIPCS.
For the compound `[H]/N=C(/N)N[C@H]1[C@H](O)[C@@H](O)[C@H](O[C@@H]2O[C@@H](C)[C@](O)(C=O)[C@H]2O[C@@H]2O[C@@H](CO)[C@H](O)[C@@H](O)[C@@H]2NC)[C@@H](N/C(N)=N\[H])[C@@H]1O` [STREPTOMYCIN], the inhibition was -0.116%.
As to `COc1cc(NS(=O)(=O)c2ccc(N)cc2)nc(OC)n1` [SULFADIMETHOXINE], the inhibition is 15%.
On to `Cc1cc(C)nc(NS(=O)(=O)c2ccc(N)cc2)n1` [SULFAMETHAZINE], for which the inhibition was 1.49%.
Same read-out and setting: the same measure for `COc1ccc(NS(=O)(=O)c2ccc(N)cc2)nn1` [SULFAMETHOXYPYRIDAZINE]: -15%; for `O=C(O)c1cc(/N=N/c2ccc(S(=O)(=O)Nc3ccccn3)cc2)ccc1O` [SULFASALAZINE]: 1.8%.
Regarding `O=C1C(CC[S+]([O-])c2ccccc2)C(=O)N(c2ccccc2)N1c1ccccc1` (stereo not shown) [SULFINPYRAZONE], the inhibition is -6%.
With `Cc1noc(NS(=O)(=O)c2ccc(N)cc2)c1C` [SULFISOXAZOLE], the inhibition amounted to 20%.
On the same count and under the same terms, the value for `CCCCC1(COC(=O)CCC(=O)O)C(=O)N(c2ccccc2)N(c2ccccc2)C1=O` [SUXIBUZONE] was 7%.

Still in this test, the particulars now being: screening of NINDS set, sheet Screen 1; read-out: inhibition LmjIPCS.
With `CSC(N)=NCCC[C@H](N)C(=O)O` [S-METHYL-L-THIOCITRULLINE ACETATE], the inhibition was determined as 10%.

The record behind these values is publication PMC7802075 (ACS Infectious Diseases, 2020).
